Assays:
[1] = tested on: rat pups challenged with cytoxan; experiment: Cytoxan (CTX)-induced alopecia model in rat pups, topical polyamine effector; format: in vivo, Sprague Dawley rat; details: for efficacy in the rat alopecia and/or dermatitis model: Examples 6, 7 and 8
Experimental: (§1) Induction of alopecia by cytoxan (CTX). Lactating Sprague Dawley mother rats with rat pups were purchased from Harlan Sprague Dawley (Indianapolis, Ind.). The mother rats were given food and water ad libitum. The rats pups were tested in the model of chemotherapy-induced alopecia described by Hussein A. M. et al., Science: 249, 1564 (1990). Cytoxan (CTX), a chemotherapeutic widely used in the treatment of cancer, was used to induce alopecia in the rats. A common side effect of cytoxan in patients is alopecia. Cytoxan and polyamine effector compounds were purchased from Sigma Chemicals Co. (St. Louis, Mo.). To produce CTX-induced alopecia, 7 to 10 day old rat pups were injected i.p. with 35 mg/kg of CTX prepared in phosphate-buffered saline. To produce reproducible CTX induced alopecia, we first tested several concentrations (35, 40, 45 ug/gm body weight) of CTX in phosphate-buffered saline (PBS), which was injected i.p. in 7–10 day old pups. Seven to ten days after CTX treatment the pups were examined to determine the degree of hair loss. The density of hair on the pups was then determined. 100% hair density represents that found on the untreated control pups while 0% represented pups with total hair loss. It was observed that 35 ug/gm of CTX was sufficient to induce 100% hair loss approximately 7 days after cytoxan challenge, and this concentration was used in subsequent experiments.
Different types of polyamine effector agents were tested in this model. The effectors were prepared in a delivery vehicle, consisting of from 60–100% ethanol in water, depending on the solubility of the compound. The compounds in ethanol/water solution from 50–150 μl in volume were topically administered to the backs of the pups once per day before and after CTX challenge. Using a micropipette, the formulation was applied to approximately 2 cm^2 section of skin to the backs of the rat pups. Specifically, the pups were treated once daily for the 4–5 days before CTX challenge, once on the day of CTX challenge and once daily for 5 days afterwards. Control groups consisted of pups receiving only delivery vehicle. Control groups treated with delivery vehicle were tested as part of every treatment study. Two or more animals were tested per group in both the control and test groups.
Approximately 7 to 10 days after CTX treatment, the pups were evaluated for alopecia. Hair loss was evaluated using a modified alopecia-scoring index described by Chen G. et al., Int. J. Cancer: 75, 303 (1998). A score of 0=no hair loss; a score of 1=10–30% hair loss; a score of 2=40–60% hair loss; a score of 3=70–90% hair loss; and a score of 4=100% hair loss.
as §1, with “It was observed that 35 ug/gm of CTX was sufficient to induce 100% hair loss approximately 7 days after cytoxan challenge, and this concentration was used in subsequent experiments.” left out

[2] = tested on: rats exposed to radiation; experiment: Radiation-induced dermatitis model in rats (15 Gy), topical polyamine effector; format: in vivo, Sprague Dawley rat; details: for Avg dermatitis score: 15 Gy, vehicle 3.0
Experimental: To determine if treatment with a polyamine effector could effectively prevent radiation-induced dermatitis, adult rats were topically treated with several different classes of polyamine effectors before and after radiation treatment. Rats were exposed to medically relevant levels of radiation that could induce clinical radiation dermatitis. Sprague Dawley rats (Harlen Spraque Dawley) at 4–6 weeks-old were anesthetized with sodium pentobarbital at 40 mg/kg body weight (Sigma, St. Louis, Mo.) prior to radiation exposure. A defined, depilated area on the backs of rats was irradiated using a Mark I, Model 30, Cs 137 irradiator (J. L. Sheppard & Associates). Briefly, the back was stripped of hair to expose the skin using a 1:1 rosin/beeswax mixture. The rest of the body was protected from radiation exposure using a lead shield. A dose response study was initially preformed to reproduce relevant dermatitis that matched the Grade (I–IV) scale used to score the severity of radiation-induced dermatitis in the clinical setting. Radiation doses of 5–7 Gray (1 Gray (Gy)=[…]) produced Grade I dermatitis within 8–10 days. Radiation doses of 7–10 Gy produced Grade II dermatitis within 8–10 days. After 8–10 days, severe radiation dermatitis was produced at 20–25 Gy (Grade III dermatitis) or at 30–35 Gy (Grade IV). Radiation dermatitis of Grade II–III was considered most clinically relevant, so a radiation challenge dose of 15 Gy in the rats was used in subsequent treatment experiments. The stripped back region on the rats was treated topically with 10–50 mM polyamine effector once daily for 5 days before and 5 days after radiation challenge.
Different classes (natural polyamines and biosynthetic inhibitors) of polyamine effector agents were tested in this model. The polyamine effector compounds were purchased from Sigma Chemicals Co. (St. Louis, Mo.), except Vaniqa, a commercially available cream containing DFMO at 13.9% ([…]). The effectors were prepared in a delivery vehicle, consisting of from 60–100% ethanol in water, depending on the solubility of the compound. The compounds in ethanol/water solution from 100–150 μl in volume were topically administered to the stripped region. Rats treated with only the delivery vehicle served as controls. Eight to ten days post-radiation challenge, the rats were evaluated for dermatitis using a modified scoring scale described by Masuda K. et al. Int. J. Radiation Oncol. Biol. Phys: 12, 1645 (1986). Dermatitis score of 0=normal, 1=slight redness, scaly skin with no focal lesions, 2=moderate redness, breakdown of larger area, some small focal lesions, 3=skin very red, breakdown of most of the irradiated area, large ulcers and crusty lesions, 4=skin very red, breakdown of the entire irradiated area, severe exudation and large crusty lesions.
To determine if treatment with a non-natural polyamine analog could effectively prevent radiation-induced dermatitis, adult rats were topically treated with a polyamine analog before and after radiation treatment. Rats were exposed to medically relevant levels of radiation that could induce clinical radiation dermatitis. Sprague Dawley rats (Harlan Spraque Dawley) at 4–6 weeks old were anesthetized with sodium pentobarbital at 40 mg/kg body weight (Sigma, St. Louis, Mo.) prior to radiation exposure. A defined, depilated area on the backs of rats was irradiated using a Mark I, Model 30, Cs 137 irradiator (J. L. Sheppard & Associates). Briefly, back hair was removed to expose the skin by using Oster electric clippers followed by a safety razor. The rest of the body was protected from radiation exposure using a lead shield. A dose response study was initially preformed to reproduce relevant dermatitis that matched the Grade (I–IV) scale used to score the severity of radiation-induced dermatitis in the clinical setting. Radiation doses of 5–7 Gray (1 Gray (Gy)=[…]) produced Grade I dermatitis within 8–10 days. […]

[3] = tested on: DNA; details: in vitro; Basu et al. 1993; cited from earlier work
[4] = tested on: rat pups challenged with cytarbine; experiment: Cytarbine-induced alopecia model in rat pups; format: in vivo; details: treatment (1 mM), vehicle 4.0
Text: (§2) Alopecia was induced in rat pups by Cytoxan, cytarbine, doxorubicin and radiation, according to the methods described in the previous examples. Polyamines from three different structural families, obtained from two different sources, gave excellent results in animal alopecia models for Cytoxan, cytarbine and doxorubicin.

[5] = tested on: rat pups challenged with doxorubicin; experiment: Doxorubicin-induced alopecia model in rat pups; format: in vivo; details: vehicle 4.0
Text: as §2

[6] = 1 mM topical (Example 1), scale 0-4, vehicle 4.0
[7] = 5 mM topical (Example 1), scale 0-4, vehicle 4.0
[8] = 10 mM topical, scale 0-4, vehicle 4.0
[9] = 20 mM topical, scale 0-4, vehicle 4.0
[10] = 10 mM in ethanol/water, scale 0-4
[11] = Example 1, concentrations tested
[12] = 50 mM topical, scale 0-4, vehicle 4.0
[13] = 50 mM in ethanol/water, scale 0-4
[14] = Example 6, 5 mM in 70% ethanol, topical, scale 0-4, vehicle 4.0

Cl.NCCC[C@](N)(C(=O)O)C(F)F (racemic) [DFMO, DL-Alpha Difluoromethylornithine HCl, reference compound]
Avg Alopecia Score [1, 6]: 4.0
Avg Alopecia Score [1, 7]: 2.0
Avg Alopecia Score [1, 8]: 2.0
Avg Alopecia Score [1, 9]: 3.5
effect on CTX-induced alopecia ([1]; Example 1, 5–10 mM): effectively prevented alopecia
Avg dermatitis score [2, 10]: 2.5

N=C(N)NCCCCN [Agmatine]
Avg Alopecia Score [1, 6]: 3.0
Avg Alopecia Score [1, 8]: 3.0
effect on CTX-induced alopecia [1, 11]: reduced, but did not prevent alopecia
Avg dermatitis score [2, 10]: 1.8
Avg dermatitis score ([2]; 20 mM in ethanol/water, scale 0 (normal) to 4): 2.0

C[C@](N)(CCCN)C(=O)O [Alpha-Methyl ornithine, reference compound]
Avg Alopecia Score [1, 7]: 4.0
Avg Alopecia Score [1, 9]: 4.0
effect on CTX-induced alopecia [1, 11]: did not prevent hair loss

CCNCCCNCCCNCCCNCC [BE-3-3-3, N1, N11-bis (ethyl) norspermine]
Avg Alopecia Score [1, 6]: 2.7
Avg Alopecia Score [1, 7]: 2.3
Avg Alopecia Score [1, 9]: 1.7
Alopecia Score +/- SEM ([1]; Expt. 1, 1 mM, vehicle 4.0 +/- 0.0): 3.5 +/− 0.7
Alopecia Score +/- SEM ([1]; Expt. 1, 10 mM, vehicle 4.0 +/- 0.0): 1.5 +/− 0.7
Alopecia Score +/- SEM ([1]; Expt. 2, 1 mM, vehicle 3.5 +/- 0.7): 2.5 +/− 0.3
Alopecia Score +/- SEM ([1]; Expt. 2, 10 mM, vehicle 3.5 +/- 0.7): 0.25 +/− 0.3
Alopecia Score +/- SEM ([1]; Expt. 3, 1 mM, vehicle 4.0 +/- 0.0): 2.7 +/− 0.4
Alopecia Score +/- SEM ([1]; Expt. 3, 10 mM, vehicle 4.0 +/- 0.0): 2.0 +/− 0.3
Avg Alopecia Score ([1]; Table 15, several data sets at multiple concentrations): 0.3–1.5

CCNCCCCNCCCCNCCCCNCC [BE-4-4-4, 1N,14N-Bisethylhomospermine]
DNA binding and aggregation [3]: binds to DNA in vitro but does not aggregate it

CCNCCCCNCCCCNCCCCNCCCCNCC [BE-4-4-4-4, 3,8,13,18,23-Pentaazapentacosane]
DNA binding and aggregation [3]: both binds DNA and aggregates it

NCCCCCN [Cadaverine]
Avg Alopecia Score [1, 7]: 4.0
Avg Alopecia Score [1, 12]: 2.5

NC(=NCCC[C@H](N)C(=O)O)NO [NOHA, NG-hydroxy-arginine]
Avg Alopecia Score [1, 7]: 2.75

NCCCNCCCN [Norspermidine]
Avg Alopecia Score [1, 7]: 4.0
Avg Alopecia Score [1, 12]: 2.0

NCCCCN [Putrescine]
Avg Alopecia Score ([1]; 2 mM topical, scale 0-4, vehicle 4.0): 3.0
Avg Alopecia Score [1, 7]: 2.5
Avg Alopecia Score [1, 8]: 2.0
Avg Alopecia Score [1, 12]: 1.5
Avg dermatitis score [2, 13]: 3.0

CCNCCCNCC1CC1CNCCCNCC (stereo not drawn) [SL-11038]
efficacy in the rat alopecia and/or dermatitis model ([1]; 5 mM): showed efficacy
Avg Alopecia Score [1, 14]: 3.5

CCNCCCNCC1CCC1CNCCCNCC (stereo not drawn) [SL-11044]
Avg Alopecia Score [1, 14]: 2.5

CCNCCCNCC#CCNCCCNCC [SL-11091]
Avg Alopecia Score [1, 14]: 3.0

CNCCCNCC#CCNCCCNC [SL-11092]
efficacy in the rat alopecia and/or dermatitis model ([1]; 5 mM): showed efficacy
Avg Alopecia Score ([1]; Table 10, treatment (1 mM), vehicle 4.0): 0.0
Avg Alopecia Score ([1]; Table 15, cytoxan-induced, re-screening summary): 0.0

CCNCCCCNCC#CCNCCCCNCC [SL-11103]
efficacy in the rat alopecia and/or dermatitis model ([1]; 5 mM): showed efficacy

CCNCCCCNCCCCNCCCCNCCCCNCCO [SL-11141]
efficacy in the rat alopecia and/or dermatitis model ([1]; 5 mM): showed efficacy
effectiveness at preventing alopecia after CTX treatment ([1]; Example 6, 5 mM): less effective
Avg Alopecia Score [1, 14]: 3.3

CCNCCCCNCCCCNCCCCNCCCCNC/C=C/CNCCCCNCCCCNCCCCNCCCCNCC [SL-11144]
activity in both the alopecia and dermatitis models ([1]; 5 mM, versus naturally-occurring polyamines or simple polyamine analogs): overall greater activity
Avg Alopecia Scores [4]: 3.0
Avg Alopecia Score [5]: 0.0

NCCCCNCCCN [Spermidine]
Avg Alopecia Score [1, 8]: 2.0
Avg Alopecia Score [1, 12]: 3.5

NCCCNCCCCNCCCN [Spermine]
Avg Alopecia Score [1, 9]: 3.0
Avg Alopecia Score [1, 12]: 2.0
Avg Alopecia Score ([1]; 100 mM topical once daily in ethanol/water, scale 0 (no hair loss) to 4 (100% hair loss), vehicle 4.0): 0.0
Avg dermatitis score [2, 13]: 2.8

NCCCNCCSP(=O)(O)O [amifostine, S-2-(3-aminopropylamino) ethylphoshorothioic acid, reference compound]
radioprotective activity ([2]; radiation-induced dermatitis assay, as compared with putrescine): good radioprotective activity
